Assay results from ChEMBL document CHEMBL3507680, “University of Dundee, Gates Library screen for HepG2 cell viability”.
“And” between values parts separate entries of the source, which are not always exact repeats. Equal values may be shown once.

Legend:
[1] = Human HepG2 cell viability assay in 384 well format; assay type: toxicity, cell-based; set-up: dose 125 nL, time 70.5 hour; concentration not given beside the values; conditions: HepG2 cells, read-out: Inhibition
[2] = Human HepG2 cell viability dose-response assay; assay type: toxicity, cell-based

| SMILES | cytotoxicity at 70.5 h [1] [%] | BOTTOM [2] | HILLSLOPE [2] | TOP [2] | pXC50 [2] |
| --- | --- | --- | --- | --- | --- |
| c1ccc(OCC2CC3(CCN(CC4CCOCC4)CC3)CO2)nc1 (stereo unspecified) | 62.9 | 0 | 0 | 0 | < 4.53 |
| CN(CCC(F)(F)F)C(=O)C1CSCN1C(=O)C(C)(C)C (stereo unspecified) | 100 | 0 | 0 | 0 | < 4.53 |
| O=C(O)C(F)(F)F.O=C1COC2(CCN(CC3CCC3)CC2)CN1c1cncnc1 | 61.5 | 0 | 0 | 0 | < 4.53 |
| N#Cc1ccc(NCCNc2ccc(C(F)(F)F)cn2)nc1 | 101 | -5.895 and -10.21 | 4.246 and 4.413 | 101.3 and 101.1 | 5.913 and 5.918 |
| c1ccc(CCN2CCCC2c2cccc(Nc3nccs3)n2)cc1 (stereo unspecified) | 70.3 | -11.18 and -9.985 | 1.416 and 1.359 | 100 | 5.661 and 5.625 |
| Cl.Cn1ccnc1N1CCN(C(=O)Cc2ccc(F)cc2)CC1 | 75 | 0 | 0 | 0 | < 4.53 |
| CC(C)Cc1ccc(S(=O)(=O)Nc2ccc(=O)n(C)c2)cc1 | 71.6 | 0 | 0 | 0 | < 4.53 |
| C/N=C1/c2cc3cc(OC)ccc3n2CCN1Cc1ccccc1.Cl | 61.3 | -4.849 and -8.854 | 2.411 and 1.684 | 87.09 and 100 | 5.148 and 5.086 |
| Cn1nccc1CN1CCOC(c2cccc(Nc3ccccn3)n2)C1 (stereo unspecified) | 84.1 |  | 6.527 and 3.177 | 100.3 and 104.2 | 5.026 and 5.036 |
| CNc1nc(C)cc(NCc2cc(C)cc3c(C)c(C)[nH]c23)n1 | 98.8 | -7.457 and -8.772 | 3.23 and 3.681 | 100 and 99.18 | 5.482 and 5.451 |
| CCc1ncc2c(n1)CN(Cc1ncc(C(C)(C)C)o1)CC2 | 60.9 | 0 | 0 | 0 | < 4.53 |
| Cc1ccccc1CN1CCCC1c1cccc(Nc2nccs2)n1 (stereo unspecified) | 70.5 | -34.71 and -42.55 | 0.815 and 0.7597 | 100 | 6.34 and 6.398 |
| Cl.Cl.Clc1cccc(C[C@@H]2NCCC[C@@H]2Nc2ccccc2)c1 | 104 | -6.539 and -3.827 | 13.96 and 17.86 | 101.8 | 5.306 and 5.329 |
| Oc1cc(C2CCCN(Cc3cccs3)C2)nc(-c2ccccn2)n1 (stereo unspecified) | 60.4 | -7.306 and -6.343 | 1.489 and 1.356 | 100 | 4.83 and 4.808 |
| CCCc1cc(=O)[nH]c(-n2nc(C3CC3)cc2N)n1 | 65.9 | 0 | 0 | 0 | < 4.53 |
| Cc1cnc(Nc2cccc(C3CCCN3Cc3cn(C)nc3C)n2)s1 (stereo unspecified) | 76 | -7.108 and -9.894 | 1.821 and 1.15 | 87.64 and 100 | 5.777 and 5.662 |
| CCn1cc(CN(C)S(=O)(=O)c2ccc(Cl)cc2)cn1 | 108 | 0 | 0 | 0 | < 4.53 |
| Oc1cc(C2CCCCN2Cc2cccs2)nc(-c2ccccn2)n1 (stereo unspecified) | 64.3 | -3.23 and -7.213 | 1.278 and 1.267 | 100 | 5.076 and 5.09 |
| NC(CC1CCCC1)c1ccc(Oc2ccccc2)cc1 (stereo unspecified) | 99 | -5.453 and -5.719 | 5.268 and 5.002 | 102.6 and 103.1 | 5.226 and 5.224 |
| O=C(Nc1nccs1)c1csc(NC2CCCC2)n1 | 62 | -10.16 and -7.056 | 0.9548 and 1.411 | 100 | 4.822 and 4.869 |
| CC(C)(C)c1nccc(C2(c3ccccc3Cl)CCNCC2)n1 | 78.4 | 9.625 and 4.047 | 4.667 and 5.549 | 104.8 and 103.4 | 5.031 and 5.028 |

| SMILES | cytotoxicity at 70.5 h [1] [%] | BOTTOM [2] | HILLSLOPE [2] | TOP [2] | pXC50 [2] |
| --- | --- | --- | --- | --- | --- |
| CNc1cc(C2CN(Cc3scnc3C)CCO2)nc(C)n1 (stereo unspecified) | 98.7 |  | 1.929 and 1.812 | 107.3 and 109.8 | 4.988 and 5.003 |
| O=C(CN1CCc2sccc2C1)Nc1ccnc2ccnn12 | 74.2 | -24.28 and -16.58 | 0.9799 and 1.026 | 100 | 5.87 and 5.888 |
| COc1ccc(C)cc1CN1CCC(c2cc3ncccc3cn2)CC1.Cl | 105 | -3.004 and -4.306 | 10.96 and 6.205 | 101.8 and 102.1 | 5.072 and 5.187 |
| C[C@H](O)CNc1cc(-c2cn[nH]c2)ncn1 | 6.37 |  |  |  |  |
| Cc1cccc(COC2COC3(CCN(Cc4ccoc4)CC3)C2)n1 (stereo unspecified) | -16.1 |  |  |  |  |
| COCC(=O)N1CCC2(CCN(c3cnn(C)c3)C2=O)C1 (stereo unspecified) | 34.5 |  |  |  |  |
| CN(C)CC1(O)CCCN(C(=O)c2ccccc2-n2cccn2)C1 (stereo unspecified) | 17.7 |  |  |  |  |
| CNc1ncc(-c2ccnn2C2CCN(C(C)=O)CC2)cn1 | -7.63 |  |  |  |  |
| COc1ccc(-c2nc(CSC3CCCCNC3=O)co2)cc1 (stereo unspecified) | -3.03 |  |  |  |  |
| O=C(Nc1ccccc1)[C@H]1CN2CCC1C[C@@H]2Cn1cc(CO)nn1 (stereo partly specified) | -9.02 |  |  |  |  |
| O=C(c1ccc[nH]1)N1C[C@H]2CC[C@@H]1CN(C1Cc3ccccc3C1)C2 | -9.66 |  |  |  |  |
| CC[C@@H]1N(Cc2ccoc2)CCC[C@]12CCC(=O)N2CCOC | -5.78 |  |  |  |  |
| CC(C)N1CCCCC1CCn1cnc2cc(C(F)(F)F)ccc2c1=O (stereo unspecified) | -12.9 |  |  |  |  |
| Cn1ccnc1COc1ccc(NC(=O)CCC2CCCO2)cc1 (stereo unspecified) | -5.92 |  |  |  |  |
| Cn1cnnc1CN1CCC2(CCC(=O)N(Cc3ccccn3)C2)CC1 | -6.09 |  |  |  |  |
| Cn1cc(-c2nc(CN3CCN(CCO)CC3)cs2)cn1 | 12.2 |  |  |  |  |
| c1ccc(-c2nnc(CNCCn3cccn3)o2)cc1 | -1.94 |  |  |  |  |
| Cc1ccc2nc(C)cc(C(=O)N3C[C@H]4CCC[C@@]4(CO)C3)c2c1 | -6.32 |  |  |  |  |
| CCCc1nc(C)cc(N2Cc3cnn(CCO)c3C2)n1 | 0.818 |  |  |  |  |
| COc1cccc(-c2nc(C)c(C(=O)N[C@@H](CC(C)C)C(=O)O)s2)c1 | -18.1 |  |  |  |  |
| Cn1cncc1C(=O)N1C[C@@H]2CCN(c3cnccn3)C[C@@H]2C1 | -11.9 |  |  |  |  |
